Patent US12636340B2, “Methods of treating multiple myeloma” (ONYX PHARMACEUTICALS, INC., priority 2020, dated 2026)

Type: in vivo
Details: both treatment groups together
Experimental: Key exclusion criteria related to significant baseline pulmonary and cardiac disease, including uncontrolled hypertension (defined as an average systolic blood pressure >159 mmHg or diastolic >99 mmHg despite optimal treatment). Analysis of LVEF changes over time was conducted. Long-term corticosteroid treatment equivalent to a dexamethasone dose of 4.0 mg/day or prednisone at a dose of >20 mg/day was not permitted while receiving study treatment. Corticosteroids administered short-term (up to 2 weeks) were permitted, provided the cumulative dose was less than a 40 mg per week dexamethasone equivalent.
Randomization was performed using an interactive voice or web response system. […]
Statistical analysis: Efficacy evaluations were based on the intention-to-treat population. […] For primary and key secondary endpoints, response and disease progression were determined by a blinded Independent Review Committee. Additionally, they were determined locally by investigators in an unblinded manner and centrally by the sponsor using a validated computer algorithm, which served as sensitivity analysis of PFS.
Descriptive statistics identified the extent of missing data. […] For patients who died on study, the death date was recorded on the end of study CRF page at the end of the study date. […]

Q: For `CC(C)C[C@H](NC(=O)[C@H](CCc1ccccc1)NC(=O)CN1CCOCC1)C(=O)N[C@@H](Cc1ccccc1)C(=O)N[C@@H](CC(C)C)C(=O)[C@@]1(C)CO1` [carfilzomib], which “patients who discontinued carfilzomib due to AEs, overall” value is on record?
A: Its value is 21.3%.
